Measured values taken from paper PMC10860701 (ACS Medicinal Chemistry Letters, 2024).
Entries after “also recorded” stand apart in the source; their conditions may differ.

What was measured:
HT-22 cells [1] = experiment: Glutamate-induced ROS; assay type: cell-based, mouse; conditions: 75 mM glutamate, 20 μM and 40 μM compound, Figure 4D
THP-1 cells = experiment: Measurement of cellular NAD+ levels in THP-1 cell cultures; assay type: cell-based, human; conditions: for ability to raise NAD+ levels compared with parent NP-A3-B2: initial screening, 3 μM, 24 h, data not shown
HT-22 cells [2] = experiment: TNFα-induced ROS; assay type: cell-based, mouse; conditions: for ROS suppression at 40 μM / effect on TNFα-induced ROS, in words: 1 μg/mL TNFα; for ROS suppression at 40 μM: 40 μM compound, Figure 4A; for effect on TNFα-induced ROS, in words: all concentrations tested
NAMPT = NAMPT (Homo sapiens, UniProt P43490); experiment: NAMPT coupled enzyme activity assay; assay type: biochemical
Chain of NAMPT (P43490 whole entry): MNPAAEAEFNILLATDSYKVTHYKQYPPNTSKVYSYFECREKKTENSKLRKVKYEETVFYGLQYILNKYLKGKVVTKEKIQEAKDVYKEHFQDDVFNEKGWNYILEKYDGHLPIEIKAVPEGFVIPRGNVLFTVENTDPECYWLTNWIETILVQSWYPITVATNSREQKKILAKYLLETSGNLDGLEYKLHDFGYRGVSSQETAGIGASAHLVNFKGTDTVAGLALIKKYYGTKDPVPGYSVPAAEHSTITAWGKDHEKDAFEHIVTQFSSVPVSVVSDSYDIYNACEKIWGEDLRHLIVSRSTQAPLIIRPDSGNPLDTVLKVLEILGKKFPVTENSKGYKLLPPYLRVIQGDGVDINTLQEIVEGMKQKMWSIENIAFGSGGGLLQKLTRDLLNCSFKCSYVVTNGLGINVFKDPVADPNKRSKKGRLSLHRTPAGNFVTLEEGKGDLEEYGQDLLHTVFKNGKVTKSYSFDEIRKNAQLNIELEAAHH

With `CC(C)C1(CCN(Cc2ccc(N(C)C)cc2)C(=O)c2ccco2)CCOC(C)(C)C1` (stereo not shown) [JGB-1-155] the “ROS levels under glutamate insult” value (HT-22 cells [1]) was “decreased ROS levels below that of the vehicle-treated control”, the “concentration response for FK866 in the presence of compound” value (THP-1 cells; THP-1 NAD+, Figure 3B) was “right-shifted” and the “potency in THP-1 cell cultures relative to NP-A3-B2” value (THP-1 cells; full concentration-response, NAD+) was “improved potency”. The “ability to raise NAD+ levels compared with parent NP-A3-B2” value (THP-1 cells) was “significantly greater ability to raise NAD^+ levels”, the “ROS suppression at 40 μM” value (HT-22 cells [2]) was “significantly suppressed ROS” and the “reduction of TNFα-induced ROS, confirmation assay” value (HT-22 cells [2]; 20 μM and 40 μM compound, Figure 4B) was “significant reduction”.
In the case of `COc1ccc(CN(CCC2(C(C)C)CCOC(C)(C)C2)C(=O)c2ccco2)cc1` (stereo not shown) [NP-A3-B2], the “ROS suppression at 40 μM” value (HT-22 cells [2]) is reported as “significantly suppressed ROS”.
`COc1ccc(CN(CCC2(C(C)C)CCOC(C)(C)C2)C(=O)c2cccs2)cc1` (stereo not shown) [JGB-1-137] was tested, and the “ROS suppression at 40 μM” value (HT-22 cells [2]) was “significantly suppressed ROS”.
`O=C(NCc1ccncc1)Nc1ccc(S(=O)(=O)N2CC3CCC(C2)O3)cc1` [SBI-797812, reference compound] was tested, and the “effect on TNFα-induced ROS, in words” value (HT-22 cells [2]) was “no significant effect on ROS”.
`COc1ccc(CN(CCC2(C(C)C)CCOC(C)(C)C2)C(=O)c2ccsc2)cc1` (stereo not shown) [JGB-1-127] was tested, and the “effect on TNFα-induced ROS, in words” value (HT-22 cells [2]) was “did not inhibit ROS generation”.
`CC(C)C1(CCN(Cc2ccc3[nH]ccc3c2)C(=O)c2ccco2)CCOC(C)(C)C1` (stereo not shown) [JGB-1-134] was tested, and the “ability to raise NAD+ levels compared with parent NP-A3-B2” value (THP-1 cells) was “significantly greater ability to raise NAD^+ levels” and the “effect on TNFα-induced ROS, in words” value (HT-22 cells [2]) was “did not inhibit ROS generation”.
In the case of `COc1ccc(CN(CCC2(C(C)C)CCOC(C)(C)C2)C(=O)c2cnc[nH]2)cc1` (stereo not shown) [JGB-1-147], the “NAMPT enzyme activity, in words” value (NAMPT) is reported as “inhibitory activity; also recorded: inhibits NAMPT”.
